Values joined by “and” are separate entries in the source; they are usually repeats but may differ in a detail not shown here. Equal entries are not always repeated. Where two headings read alike, the source gives them in different places.
Tests used:
[1] = tested on: Neonatal human dermal fibroblasts; assay: Collagen synthesis (secreted procollagen 1 immunoassay); assay type: cell-based; details: 0.2 to 20 mM, 48 hours, serum-free medium
Experimental: Neonatal human dermal fibroblasts were purchased from Clonetics Corp., San Diego, Calif. All materials for cell culture were purchased from Life Technologies, N.Y. Cells were maintained in DMEM with 10% fetal bovine serum and used in passages 5-10, Confluent 96-well plates containing fibroblasts were treated with test materials (0.2 to 20 mM) in serum-free medium for 48 hours. […] This was carried out in a BioDot SF apparatus according to the manufacturer's instructions (BioRad Labs, CA) and the blot was developed using a Vectastain Kit (PK6104, Vector Labs, CA) as per the manufacturer's directions. Color intensity was quantitated using an Ultroscan XL densitometer (Pharmacia LKB). Fold increase was calculated as (density of treated)/untreated.

[2] = tested on: Normal human epidermal keratinocytes (NHEK); assay: Keratinocyte proliferation (DNA content, fluorometric); assay type: cell-based
Experimental: Normal human epidermal keratinocytes (NHEK) derived from neonatal foreskin were used for all experiments. Media were purchased from Clonetics Corp., San Diego, Calif. Cell stocks frozen in passage 2 were grown in Keratinocyte Growth Medium (KGM) and passaged when 70-80% confluent. Cells were seeded in 96 well plates (Corning) at a density of 7500 cells/well in KGM. After 24 hours, cells were rinsed and dosed with test compounds in 200 μl of Keratinocyte Basal Medium (KBM). Plates were incubated for three days at 37° C., 5% CO2. Cell proliferation was estimated by assaying for DNA content by a fluorometric method described by Rago et al. (Analytical Biochemistry, 191:31-34, 1990). Medium was removed and cells were rinsed with phosphate buffered saline solution. 100 μl of sterile distilled water was added to each well and plates were frozen at -70° C. for one and a half hours. Plates were thawed for one hour at which time 100 μl of a 20 ug/ml solution of Bisbenzimide H33258 fluorochrome (Calbiochem Corp., La Jolla, Calif.) was added to each well. The fluorochrome was prepared just prior to use in 10 mM Tris, 1 mM EDTA, 4M NaCl, pH 7.4. Plates were read in a Millipore Cytofluor fluorescent plate reader to quantify DNA (excitation 360 nm, emission 460 nm). Percent increase over control was calculated from blank-corrected readings as (treated-untreated)/(untreated)*100%.

[3] = tested on: Fibroblast Lactate Dehydrogenase; assay: Lactate dehydrogenase (LDH) inhibition, fibroblast lysate; assay type: biochemical, human
Experimental: All reagents were purchased from Sigma Chemical Co., St. Louis, Mo, USA. Sigma procedure No. 500 was modified for our purposes. One mL of pyruvate substrate (Sigma […]-1, pH=7.5) was added to a vial containing 1 mg NADH (Sigma 340-101). In a 96-well plate, the following components were added to each test well: 10 μl pyruvate/NADH mixture, and 10 μl cell lysate. For preparation of cell lysates, neonatal human keratinocytes or fibroblasts (Clonetic Corp., San Diego, Calif.) were cultured in tissue culture plates (Corning, USA). Cells were scraped in PBS (pH=7.4) and this solution was used as a source of L-lactate dehydrogenase. If such cell lysate was not available, a commercial preparation of L-lactic dehydrogenase (E.C.1.1.1.27), Sigma L9889, from porcine heart could be used in place of the cell lysate. For positive control, the inhibitor was replaced with 10 μl of PBS. For blank determination, the lysate or enzyme was replaced with […]. After mixing, the plate was incubated for 30 minutes at 37° C. Then 20 μl of color reagent (Sigma 505-2) was added to each well. After 20 minutes at room temperature, 150 μI of 0.4N NaOH was added, and the plate was read for absorbance at 490 nm in a Dynatech MR 7000 Microplate Reader. To calculate % inhibition, the control activity (CA) was first determined by subtracting the absorbance of the positive control from the blank, Then the activity in the presence of the inhibitor (IA) was calculated by subtracting the appropriate absorbance from the blank. %/, Inhibition was then calculated as: ((CA-IA)/CA)* 100%/.

CC(=O)O [Acetate]
Maximum fold over Control (collagen synthesis) [1]: 2.0 fold

O=C(O)CC(O)(CC(=O)O)C(=O)O [Citrate]
activation at 10 µM ([2]; Homo sapiens, NHEK, 72 h, read-out: % Increase Over Control (keratinocyte proliferation), Table 6, citrate 0.01 mM): 25%
activation at 100 µM ([2]; Homo sapiens, NHEK, 72 h, read-out: % Increase Over Control (keratinocyte proliferation), Table 6, citrate 0.1 mM): 40%
activation at 150 µM ([2]; Homo sapiens, NHEK, 72 h, read-out: % Increase Over Control (keratinocyte proliferation), Table 6, citrate 0.15 mM): 18%
activation at 300 µM ([2]; Homo sapiens, NHEK, 72 h, read-out: % Increase Over Control (keratinocyte proliferation), Table 6, citrate 0.3 mM): 39%
activation at 600 µM ([2]; Homo sapiens, NHEK, 72 h, read-out: % Increase Over Control (keratinocyte proliferation), Table 6, citrate 0.6 mM): 35%
activation at 1000 µM ([2]; Homo sapiens, NHEK, 72 h, read-out: % Increase Over Control (keratinocyte proliferation), Table 6, citrate 1.0 mM): 20%
activation at 1250 µM ([2]; Homo sapiens, NHEK, 72 h, read-out: % Increase Over Control (keratinocyte proliferation), Table 6, citrate 1.25 mM): 18%
activation at 2500 µM ([2]; Homo sapiens, NHEK, 72 h, read-out: % Increase Over Control (keratinocyte proliferation), Table 6, citrate 2.5 mM): 0%
activation at 5000 µM ([2]; Homo sapiens, NHEK, 72 h, read-out: % Increase Over Control (keratinocyte proliferation), Table 6, citrate 5.0 mM): 0%
activation at 10000 µM ([2]; Homo sapiens, NHEK, 72 h, read-out: % Increase Over Control (keratinocyte proliferation), Table 6, citrate 10 mM): 0%
activation at 2 µM ([2]; Homo sapiens, NHEK, 72 h, read-out: % Increase Over Control (keratinocyte proliferation), Table 7, 0.002 mM): 22%
activation at 20 µM ([2]; Homo sapiens, NHEK, 72 h, read-out: % Increase Over Control (keratinocyte proliferation), Table 7, 0.02 mM): 31%
activation at 20000 µM ([2]; Homo sapiens, NHEK, 72 h, read-out: % Increase Over Control (keratinocyte proliferation), Table 7, 20 mM): 0%

C[C@@H](O)C(=O)O [D-lactate]
% Inhibition ([3]; 0.625 mM): 0%
% Inhibition ([3]; 1.25 mM): 0%
% Inhibition ([3]; 2.5 mM): 0%
% Inhibition ([3]; 5 mM): 0%

N[C@@H](CCC(=O)O)C(=O)O [Glutamate]
Maximum fold over Control (collagen synthesis) [1]: 3.6 fold

NCC(=O)O [Glycinate]
% Inhibition ([3]; 0.625 mM): 0%
% Inhibition ([3]; 1.25 mM): 0%
% Inhibition ([3]; 2.5 mM): 0%
% Inhibition ([3]; 5 mM): 0%

O=C(O)CO [Glycolate]
% Inhibition ([3]; 0.625 mM): 0%
% Inhibition ([3]; 1.25 mM): 0%
% Inhibition ([3]; 2.5 mM): 0%
% Inhibition ([3]; 5 mM): 0%

O=C(O)CC(C(=O)O)C(O)C(=O)O (stereo not shown) [Isocitrate]
activation at 0.2 µM ([2]; Homo sapiens, NHEK, 72 h, read-out: % Increase Over Control (keratinocyte proliferation), Table 8, isocitrate 0.0002 mM): 0%
activation at 2 µM ([2]; Homo sapiens, NHEK, 72 h, read-out: % Increase Over Control (keratinocyte proliferation), Table 8, isocitrate 0.002 mM): 39%
activation at 156 µM ([2]; Homo sapiens, NHEK, 72 h, read-out: % Increase Over Control (keratinocyte proliferation), Table 8, isocitrate 0.156 mM): 32%
activation at 313 µM ([2]; Homo sapiens, NHEK, 72 h, read-out: % Increase Over Control (keratinocyte proliferation), Table 8, isocitrate 0.313 mM): 40%
activation at 625 µM ([2]; Homo sapiens, NHEK, 72 h, read-out: % Increase Over Control (keratinocyte proliferation), Table 8, isocitrate 0.625 mM): 32%
activation at 1250 µM ([2]; Homo sapiens, NHEK, 72 h, read-out: % Increase Over Control (keratinocyte proliferation), Table 8, isocitrate 1.25 mM): 40%
activation at 2000 µM ([2]; Homo sapiens, NHEK, 72 h, read-out: % Increase Over Control (keratinocyte proliferation), Table 8, isocitrate 2.0 mM): 40%
activation at 2500 µM ([2]; Homo sapiens, NHEK, 72 h, read-out: % Increase Over Control (keratinocyte proliferation), Table 8, isocitrate 2.5 mM): 32%
activation at 5000 µM ([2]; Homo sapiens, NHEK, 72 h, read-out: % Increase Over Control (keratinocyte proliferation), Table 8, isocitrate 5.0 mM): 18%
activation at 10000 µM ([2]; Homo sapiens, NHEK, 72 h, read-out: % Increase Over Control (keratinocyte proliferation), Table 8, isocitrate 10 mM): 0%
% Increase Over Control (keratinocyte proliferation) ([2]; Table 8, isocitrate 0.002 mM): 20%
% Increase Over Control (keratinocyte proliferation) ([2]; Table 8, isocitrate 2.0 mM): 30%

O=C(O)CCC(=O)C(=O)O [Ketoglutarate]
Maximum fold over Control (collagen synthesis) [1]: 2.2 fold

O=C(O)C[C@H](O)C(=O)O [L-Malate]
activation at 2 µM ([2]; Homo sapiens, NHEK, 72 h, read-out: % Increase Over Control (keratinocyte proliferation), Table 5, L-malate 0.002 mM): 34%
activation at 20 µM ([2]; Homo sapiens, NHEK, 72 h, read-out: % Increase Over Control (keratinocyte proliferation), Table 5, L-malate 0.02 mM): 27%
activation at 200 µM ([2]; Homo sapiens, NHEK, 72 h, read-out: % Increase Over Control (keratinocyte proliferation), Table 5, L-malate 0.2 mM): 36%
% Increase Over Control (keratinocyte proliferation) ([2]; Table 5, L-malate 0.2 mM): 19% and 29%
% Increase Over Control ([2]; Table 12, oxamate 0, malate 0.156 mM): 33%
% Increase Over Control ([2]; Table 12, oxamate 0, malate 0.313 mM): 29%
% Increase Over Control ([2]; Table 12, oxamate 0, malate 0.625 mM): 36%
% Increase Over Control ([2]; Table 12, oxamate 0, malate 1.25 mM): 25%
% Increase Over Control ([2]; Table 12, oxamate 0, malate 2.5 mM): 39%
% Increase Over Control ([2]; Table 12, oxamate 0, malate 5.0 mM): 20%
% Inhibition ([3]; 0.625 mM): 0%
% Inhibition ([3]; 1.25 mM): 0%
% Inhibition ([3]; 2.5 mM): 0%
% Inhibition ([3]; 5 mM): 0%

C[C@H](O)C(=O)O [L-lactate]
% Inhibition ([3]; 0.625 mM): 0%
% Inhibition ([3]; 1.25 mM): 0%
% Inhibition ([3]; 2.5 mM): 0%
% Inhibition ([3]; 5 mM): 0%

O=C(O)CC(=O)O [Malonate]
% Inhibition ([3]; 0.625 mM): 0%
% Inhibition ([3]; 1.25 mM): 0%
% Inhibition ([3]; 2.5 mM): 0%
% Inhibition ([3]; 5 mM): 0%

c1cn[nH]c1 [Pyrazole]
% Inhibition ([3]; 0.625 mM): 0%
% Inhibition ([3]; 1.25 mM): 0%
% Inhibition ([3]; 2.5 mM): 0%
% Inhibition ([3]; 5 mM): 0%

CC(=O)C(=O)O [Pyruvate]
% Increase Over Control ([2]; Table 11, oxamate 0, pyruvate 0.156 mM): 2%
% Increase Over Control ([2]; Table 11, oxamate 0, pyruvate 0.313 mM): 0%
% Increase Over Control ([2]; Table 11, oxamate 0, pyruvate 0.625 mM): 3%
% Increase Over Control ([2]; Table 11, oxamate 0, pyruvate 1.25 mM): 0%
% Increase Over Control ([2]; Table 11, oxamate 0, pyruvate 2.5 mM): 7%
% Increase Over Control ([2]; Table 11, oxamate 0, pyruvate 5.0 mM): 0%

O=C(O)CCC(=O)O [Succinate]
Maximum fold over Control (collagen synthesis) [1]: 2.8 fold

CC(S)C(=O)O (stereo not shown) [Thio-Lactate, Thiolactate]
activation at 313 µM ([2]; Homo sapiens, NHEK, 72 h, Table 4, 0.313 mM, read-out: % increase over control (keratinocyte proliferation)): 9%
activation at 625 µM ([2]; Homo sapiens, NHEK, 72 h, Table 4, 0.625 mM, read-out: % increase over control (keratinocyte proliferation)): 29%
activation at 1250 µM ([2]; Homo sapiens, NHEK, 72 h, Table 4, 1.25 mM, read-out: % increase over control (keratinocyte proliferation)): 27%
activation at 2500 µM ([2]; Homo sapiens, NHEK, 72 h, Table 4, 2.5 mM, read-out: % increase over control (keratinocyte proliferation)): 5%
activation at 5000 µM ([2]; Homo sapiens, NHEK, 72 h, Table 4, 5 mM, read-out: % increase over control (keratinocyte proliferation)): 0%

Methyl pyrazole
% Inhibition ([3]; 0.625 mM): 0%
% Inhibition ([3]; 1.25 mM): 0%
% Inhibition ([3]; 2.5 mM): 0%
% Inhibition ([3]; 5 mM): 0%

— patent US5853742A, “Cosmetic compositions containing lactate dehydrogenase inhibitors” (priority 1997, dated 1998)
